US8828988B2 (Tetraphase Pharmaceuticals, Inc., priority 2009, dated 2014)
Converted amounts (≈) assume the structure as drawn. Like-named read-outs stand apart in the source and are kept apart here.

How the values were obtained:
[1] = test system: Streptococcus pneumoniae SP106, ATCC 49619; assay: MIC assay, SP106; assay type: cell-based
[2] = test system: Enterobacter cloacae EC108, ATCC 13047; assay: MIC assay, EC108; assay type: cell-based
[3] = test system: Acinetobacter baumannii AB110, ATCC 19606; assay: MIC assay, AB110; assay type: cell-based
[4] = test system: Staphylococcus aureus SA158, tetracycline-resistant tet(K); assay: MIC assay, SA158; assay type: cell-based
[5] = test system: Escherichia coli EC107, ATCC 25922; assay: MIC assay, EC107; assay type: cell-based
[6] = test system: Streptococcus pneumoniae SP160, tetracycline-resistant, tet(M); assay: MIC assay, SP160; assay type: cell-based
[7] = test system: Staphylococcus aureus SA101, ATCC 29213, MSSA; assay: MIC assay, SA101; assay type: cell-based
[8] = test system: Klebsiella pneumoniae KP153, tetracycline-resistant, tet(A), MDR, ESBL+; assay: MIC assay, KP153; assay type: cell-based
[9] = test system: Escherichia coli EC155, tetracycline-resistant, tet(A); assay: MIC assay, EC155; assay type: cell-based
[10] = test system: Staphylococcus aureus SA100, ATCC 13709, MSSA, Smith strain; assay: MIC assay, SA100; assay type: cell-based
[11] = test system: Staphylococcus aureus SA161, HA-MRSA, tetracycline-resistant, tet(M); assay: MIC assay, SA161; assay type: cell-based
[12] = test system: Pseudomonas aeruginosa PA111, ATCC 27853; assay: MIC assay, PA111; assay type: cell-based
[13] = test system: Enterococcus faecalis EF159, tetracycline-resistant, tet(M); assay: MIC assay, EF159; assay type: cell-based
[14] = test system: Enterococcus faecalis EF103, ATCC 29212; assay: MIC assay, EF103; assay type: cell-based; conditions: for MIC: Enterococcus faecalis
[15] = test system: Klebsiella pneumoniae KP109, ATCC 13883; assay: MIC assay, KP109; assay type: cell-based
[16] = test system: E. coli DH10B(pBAD-tetM), expressing tet(M); assay: MIC against recombinant E. coli expressing tet(M); assay type: cell-based
Text: (§1) Constructs were transformed into E. coli DH10B for expression. Recombinant strains were pre-induced under optimized conditions with L-arabinose prior to use as inocula in CLSI standardized MIC assays.

[17] = test system: S. pneumoniae isolates (Eurofins-Medinet, recent clinical isolates); assay: MIC50 and MIC90 analysis (Example 22)
Protocol: Frozen bacterial strains were thawed and subcultured onto Mueller Hinton Broth (MHB) or other appropriate media (Streptococcus requires blood and Haemophilus requires hemin and NAD). Following incubation overnight, the strains were subcultured onto Mueller Hinton Agar and again incubated overnight. […] Isolated colonies were selected to prepare a starting inoculum equivalent to a 0.5 McFarland standard. […] Antibiotics (stored frozen, thawed and used within 3 hours of thawing) and compounds were further diluted to the desired working concentrations.
The assays were run as follows. Fifty μL of MHB was added to wells 2-12 of a 96-well plate. One hundred μL of appropriately diluted antibiotic or compound was added to well 1. Fifty μL of antibiotics or compound was removed from well 1 and added to well 2 and the contents of well 2 mixed by pipetting up and down five times. Fifty μL of the mixture in well 2 was removed and added to well 3 and mixed as above. Serial dilutions were continued in the same manner through well 12. Fifty μL was removed from well 12 so that all contained 50 μL. Fifty μL of the working inoculum was then added to all test wells. A growth control well was prepared by adding 50 μL of working inoculum and 50 μL of MHB to an empty well. The plates were then incubated at 37° C. overnight, removed from the incubator and each well was read on a plate reading mirror. The lowest concentration (MIC) of test compound that inhibited the growth of the bacteria was recorded.
MIC, MIC50 and MIC90 values were determined according to CLSI methodology. S. pneumoniae and H. influenzae isolates were obtained from Eurofins-Medinet and are recent clinical isolates. S. aureus strains were collected from various geographical sources.

[18] = test system: E. coli DH10B(pBAD-tetK), expressing tet(K); assay: MIC against recombinant E. coli expressing tet(K); assay type: cell-based; conditions: for MIC: Escherichia coli
Text: as §1

[19] = test system: H. influenzae isolates (Eurofins-Medinet, recent clinical isolates); assay: MIC50 and MIC90 analysis (Example 22)
[20] = test system: E. faecalis clinical isolates; assay: MIC50, MIC90 and MIC range, panel of clinical isolates (Example 20); assay type: cell-based; conditions: 24 isolates, in µg/mL
Protocol: (§2) The assays were run as follows.
(§3) Both values, as well as the MIC range (the lowest and highest MIC value observed for a collection of organisms), were determined for the isolates listed in Table 3.

[21] = test system: S. aureus clinical isolates; assay: as above; assay type: cell-based; conditions: MRSA, 30 isolates; in µg/mL
Protocol: as §2, §3

[22] = test system: S. pneumoniae clinical isolates; assay: as above; assay type: cell-based; conditions: 19 isolates, in µg/mL
Protocol: as §2, §3

[23] = test system: E. coli S30 extract system, coupled in vitro transcription/translation, firefly luciferase readout; assay: In vitro transcription/translation (TnT) assay; assay type: biochemical
[24] = ATCC49619, read-out: MIC SP106 49619
[25] = ATCC13047, read-out: MIC EC108 13047
[26] = ATCC19606, read-out: MIC AB110 19606
[27] = ATCC25922, read-out: MIC EC107 25922
[28] = ATCC29212, read-out: MIC EF103 29212
[29] = ATCC13883, read-out: MIC KP109 13883
[30] = ATCC27853, read-out: MIC PA111 27853

## CN(C)c1ccc(O)c2c1C[C@H]1C[C@H]3[C@H](N(C)C)C(O)=C(C(N)=O)C(=O)[C@@]3(O)C(O)=C1C2=O [Mino., Minocycline, reference compound]
[1]; ATCC49619, numeric values of control compounds, read-out: MIC SP106 49619
  MIC: < 0.015 µg/mL
[2]; ATCC13047, numeric values of control compounds, read-out: MIC EC108 13047
  MIC: 2 µg/mL (≈ 4.37 µM)
[3]; ATCC19606, numeric values of control compounds, read-out: MIC AB110 19606
  MIC: 0.06 µg/mL (≈ 0.131 µM)
[4]; numeric values of control compounds, read-out: MIC SA158 tetK
  MIC: 0.03 µg/mL (≈ 0.0656 µM)
[5]; ATCC25922, numeric values of control compounds, read-out: MIC EC107 25922
  MIC: 0.5 µg/mL (≈ 1.09 µM)
[6]; numeric values of control compounds, read-out: MIC SP160 tetM
  MIC: 2 µg/mL (≈ 4.37 µM)
[7]; numeric values of control compounds, read-out: MIC SA101 29213
  MIC: 0.06 µg/mL (≈ 0.131 µM)
[8]; numeric values of control compounds, read-out: MIC KP153 tetA
  MIC: 8 µg/mL (≈ 17.5 µM)
[9]; numeric values of control compounds, read-out: MIC EC155 tetA
  MIC: 8 µg/mL (≈ 17.5 µM)
[10]; numeric values of control compounds, read-out: MIC SA100 13709
  MIC: 0.06 µg/mL (≈ 0.131 µM)
[11]; numeric values of control compounds, read-out: MIC SA161 MRSA, tetM
  MIC: 8 µg/mL (≈ 17.5 µM)
[12]; ATCC27853, numeric values of control compounds, read-out: MIC PA111 27853
  MIC: 16 µg/mL (≈ 35 µM)
[13]; numeric values of control compounds, read-out: MIC EF159 tetM
  MIC: 16 µg/mL (≈ 35 µM)

## CN(C)[C@@H]1C(O)=C(C(N)=O)C(=O)[C@@]2(O)C(O)=C3C(=O)c4c(O)cccc4C[C@H]3C[C@@H]12 [San., Sancycline, reference compound]
[1]; [24]
  MIC: 0.25 µg/mL (≈ 0.603 µM)
[2]; [25]
  MIC: 8 µg/mL (≈ 19.3 µM)
[3]; [26]
  MIC: 0.25 µg/mL (≈ 0.603 µM)
[4]; read-out: MIC SA158 tetK
  MIC: 4 µg/mL (≈ 9.65 µM)
[5]; [27]
  MIC: 8 µg/mL (≈ 19.3 µM)
[14]; [28]
  MIC: 8 µg/mL (≈ 19.3 µM)
[6]; read-out: MIC SP160 tetM
  MIC: 8 µg/mL (≈ 19.3 µM)
[7]; read-out: MIC SA101 29213
  MIC: 0.5 µg/mL (≈ 1.21 µM)
[8]; read-out: MIC KP153 tetA
  MIC: 32 µg/mL (≈ 77.2 µM)
[15]; [29]
  MIC: 8 µg/mL (≈ 19.3 µM)
[9]; read-out: MIC EC155 tetA
  MIC: 32 µg/mL (≈ 77.2 µM)
[10]; read-out: MIC SA100 13709
  MIC: 1 µg/mL (≈ 2.41 µM)
[12]; [30]
  MIC: > 32 µg/mL
[13]; read-out: MIC EF159 tetM
  MIC: 8 µg/mL (≈ 19.3 µM)

## C[C@H]1c2cccc(O)c2C(=O)C2=C(O)[C@]3(O)C(=O)C(C(N)=O)=C(O)[C@@H](N(C)C)[C@@H]3[C@@H](O)[C@@H]21 [Doxycycline, doxycycline, reference compound]
[16]; Escherichia coli, read-out: MIC, Uninduced
  MIC: 4 µg/mL
[16]; ratio of MICs
  Ratio (TetM induced / Uninduced): 8
[1]; ATCC49619, Table 8, read-out: MIC S. pneumoniae ATCC 49619
  MIC: 0.06 µg/mL (≈ 0.135 µM)
[1]; ATCC49619, Table 9, read-out: MIC S. pneum ATCC 49619
  MIC: 0.25 µg/mL (≈ 0.563 µM)
[2]; ATCC13047, Table 9, read-out: MIC Enterobacter cloaceae ATCC 13047
  MIC: 4 µg/mL (≈ 9 µM)
[3]; ATCC19606, Table 9, read-out: MIC A.baum AB110
  MIC: 2 µg/mL (≈ 4.5 µM)
[4]; Table 8, read-out: MIC S. aureus tetK
  MIC: 2 µg/mL (≈ 4.5 µM)
[4]; Table 9, read-out: MIC S. aureus SA158 (tet)K
  MIC: 2 µg/mL (≈ 4.5 µM)
[5]; ATCC25922, Table 8, read-out: MIC E. coli ATCC 25922
  MIC: 1 µg/mL (≈ 2.25 µM)
[5]; ATCC25922, Table 9, read-out: MIC E. coli ATCC 25922
  MIC: 1 µg/mL (≈ 2.25 µM)
[14]; ATCC29212, Table 8, read-out: MIC E. faecalis ATCC 29212
  MIC: 4 µg/mL (≈ 9 µM)
[14]; Table 9
  MIC E. faecalis ATCC 29212: 4 µg/mL (≈ 9 µM)
[17]; S. pneumoniae (n = 20)
  MIC Range: ≦0.016-16 μg/ml
[17]; Streptococcus pneumoniae
  MIC50: 8 µg/mL (≈ 18 µM)
  MIC90: 8 µg/mL (≈ 18 µM)
[6]; Table 8, read-out: MIC S. pneumoniae tetM
  MIC: 4 µg/mL (≈ 9 µM)
[6]; Table 9, read-out: MIC S. pneum SP160 (tet)M
  MIC: 8 µg/mL (≈ 18 µM)
[18]; read-out: MIC, TetK Induced
  MIC: 8 µg/mL
[18]; read-out: MIC, Uninduced
  MIC: 2 µg/mL
[18]; ratio of TetK induced to uninduced MIC
  MIC ratio, TetK induced to uninduced: 4
[18]; tet(K) expressed vs not expressed
  MIC in the presence of tet(K) expression, fold higher than when tet(K) was not expressed: 4 fold
[7]; Table 8, read-out: MIC S. aureus ATCC 29213
  MIC: 0.13 µg/mL (≈ 0.293 µM)
[7]; Table 9, read-out: MIC S. aureus ATCC 29213
  MIC: 0.5 µg/mL (≈ 1.13 µM)
[8]; Table 9, read-out: MIC Klebsiella pneum KP153 (tet)A
  MIC: 32 µg/mL (≈ 72 µM)
[15]; ATCC13883, Table 9, read-out: MIC Klebsiella pneum ATCC 13883
  MIC: 2 µg/mL (≈ 4.5 µM)
[19]; H. influenzae (n = 12)
  MIC Range: 0.5 to 4 µg/mL
[19]; Haemophilus influenzae
  MIC50: 1 µg/mL (≈ 2.25 µM)
  MIC90: 4 µg/mL (≈ 9 µM)
[9]; Table 8, read-out: MIC E. coli tetA
  MIC: 32 µg/mL (≈ 72 µM)
[9]; Table 9, read-out: MIC E. coli EC155 (tet)A
  MIC: 32 µg/mL (≈ 72 µM)
[10]; Table 9, read-out: MIC S. aureus ATCC 13709
  MIC: 0.13 µg/mL (≈ 0.293 µM)
[11]; Table 8, read-out: MIC S. aureus MRSA, tetM
  MIC: 8 µg/mL (≈ 18 µM)
[11]; Table 9, read-out: MIC MRSA (tet)M SA161
  MIC: 8 µg/mL (≈ 18 µM)
[12]; ATCC27853, Table 9, read-out: MIC P. aeruginosa ATCC 27853
  MIC: > 32 µg/mL
[13]; Table 8, read-out: MIC E. faecalis tetM
  MIC: 4 µg/mL (≈ 9 µM)
[13]; Table 9, read-out: MIC E. faecalis EF159 (tet)M
  MIC: 8 µg/mL (≈ 18 µM)
[20]
  MIC Range: 0.063-16
[21]
  MIC Range: 0.063-8
[22]
  MIC Range: <=0.016-16

## CN(C)c1cc(NC(=O)CNC(C)(C)C)c(O)c2c1C[C@H]1C[C@H]3[C@H](N(C)C)C(O)=C(C(N)=O)C(=O)[C@@]3(O)C(O)=C1C2=O [Tige., Tigecycline, reference compound]
[1]; [24]
  MIC: 0.0156 µg/mL (≈ 0.0266 µM)
[2]; [25]
  MIC: 0.25 µg/mL (≈ 0.427 µM)
[3]; [26]
  MIC: 0.25 µg/mL (≈ 0.427 µM)
[4]; read-out: MIC SA158 tetK
  MIC: 0.06 µg/mL (≈ 0.102 µM)
[5]; [27]
  MIC: 0.03 µg/mL (≈ 0.0512 µM)
[14]; [28]
  MIC: 0.03 µg/mL (≈ 0.0512 µM)
[6]; read-out: MIC SP160 tetM
  MIC: 0.0156 µg/mL (≈ 0.0266 µM)
[23]
  TnT IC50: 0.3 µg/mL
[7]; read-out: MIC SA101 29213
  MIC: 0.06 µg/mL (≈ 0.102 µM)
[8]; read-out: MIC KP153 tetA
  MIC: 1 µg/mL (≈ 1.71 µM)
[15]; [29]
  MIC: 0.125 µg/mL (≈ 0.213 µM)
[9]; read-out: MIC EC155 tetA
  MIC: 0.5 µg/mL (≈ 0.854 µM)
[10]; read-out: MIC SA100 13709
  MIC: 0.06 µg/mL (≈ 0.102 µM)
[11]; read-out: MIC SA161 MRSA, tetM
  MIC: 0.125 µg/mL (≈ 0.213 µM)
[12]; [30]
  MIC: 8 µg/mL (≈ 13.7 µM)
[13]; read-out: MIC EF159 tetM
  MIC: 0.06 µg/mL (≈ 0.102 µM)
